Data published in the supplement of paper PMC10307832.

Columns and labels:
Experiment in all cases: relative viability (nuclei count vs DMSO), 5 days (fraction); higher = more cells survive
[1] = compound: CC1CC(=O)N(C2=CN=C(N=C2N1C3CCCC3)NC4=C(C=C(C=C4)C(=O)NC5CCN(CC5)C)OC)C [NPK76-II-72-1] + CC(=O)c1c(C)c2cnc(Nc3ccc(N4CCNCC4)cn3)nc2n(C2CCCC2)c1=O [Palbociclib] (partner 0.5 µM)
In short: (§1)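 Lung cancer cell lines in 1536-well plates got either a single drug or a fixed anchor-drug dose together with five library-drug doses (not always all listed) in √10 steps, by pin tool, on the day after seeding. Nuclei were counted after 5 days, and relative viability is the treated-to-vehicle ratio of nuclei counts. Values are medians of duplicate plates.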

BI-2536 + Palbociclib = compound: CC[C@@H]1C(=O)N(C)c2cnc(Nc3ccc(C(=O)NC4CCN(C)CC4)cc3OC)nc2N1C1CCCC1 [BI-2536] + CC(=O)c1c(C)c2cnc(Nc3ccc(N4CCNCC4)cn3)nc2n(C2CCCC2)c1=O [Palbociclib] (partner 0.5 µM)
In short: as §1

[2] = compound: CC1CC(=O)N(C2=CN=C(N=C2N1C3CCCC3)NC4=C(C=C(C=C4)C(=O)NC5CCN(CC5)C)OC)C [NPK76-II-72-1] + CCNC(=O)c1noc(-c2cc(C(C)C)c(O)cc2O)c1-c1ccc(CN2CCOCC2)cc1 [Luminespib] (partner 0.01 µM)
In short: as §1

NPK76-II-72-1 + AZD7762 = compound: CC1CC(=O)N(C2=CN=C(N=C2N1C3CCCC3)NC4=C(C=C(C=C4)C(=O)NC5CCN(CC5)C)OC)C [NPK76-II-72-1] + NC(=O)Nc1cc(-c2cccc(F)c2)sc1C(=O)N[C@H]1CCCNC1 [AZD7762] (partner 0.2 µM)
In short: as §1

Cell Line | relative viability ([1]; first compound 0.03162 µM) | relative viability ([1]; first compound 0.1 µM) | relative viability ([1]; first compound 0.3162 µM) | relative viability ([1]; first compound 1 µM) | relative viability (BI-2536 + Palbociclib; first compound 0.01 µM) | relative viability (BI-2536 + Palbociclib; first compound 0.03162 µM) | relative viability (BI-2536 + Palbociclib; first compound 0.1 µM) | relative viability (BI-2536 + Palbociclib; first compound 0.3162 µM) | relative viability (BI-2536 + Palbociclib; first compound 1 µM) | relative viability ([2]; first compound 0.01 µM) | relative viability ([2]; first compound 0.03162 µM) | relative viability ([2]; first compound 0.1 µM) | relative viability ([2]; first compound 0.3162 µM) | relative viability ([2]; first compound 1 µM) | relative viability (NPK76-II-72-1 + AZD7762; first compound 0.03162 µM) | relative viability (NPK76-II-72-1 + AZD7762; first compound 0.1 µM) | relative viability (NPK76-II-72-1 + AZD7762; first compound 0.3162 µM) | relative viability (NPK76-II-72-1 + AZD7762; first compound 1 µM) | relative viability ([1]; first compound 0.01 µM) | relative viability (NPK76-II-72-1 + AZD7762; first compound 0.01 µM)
LCLC-103H | 0.501 | 0.501 | 0.565 | 0.484 | 0.473 | 0.508 | 0.421 | 0.371 | 0.294 | 0.9 | 1.05 | 0.919 | 1.03 | 1.01 | 0.851 | 0.789 | 0.852 | 0.745 | – | –
PC-3 [JPC-3] | – | 0.519 | 0.549 | 0.597 | 0.54 | 0.828 | 0.5 | 0.416 | 0.424 | 0.622 | 0.705 | 0.638 | 0.713 | 0.728 | – | 0.738 | 0.917 | 0.751 | 0.562 | 0.766
BEN | 0.478 | 0.45 | 0.509 | 0.48 | 0.481 | 0.506 | 0.455 | 0.401 | 0.366 | 0.326 | 0.332 | 0.325 | 0.403 | 0.329 | 0.516 | 0.791 | 0.572 | 0.786 | 0.432 | 0.77
NCI-H1666 | 0.62 | 0.652 | 0.6 | 0.67 | 0.701 | 0.575 | 0.642 | 0.505 | 0.467 | 0.977 | 1.03 | 0.987 | 0.924 | 1.06 | 0.861 | 0.852 | 0.752 | 1.01 | 0.64 | 0.84
LC-2-ad | 0.508 | 0.537 | 0.498 | 0.475 | 0.526 | 0.379 | 0.361 | 0.234 | 0.248 | 0.979 | 1.12 | 0.955 | 1.04 | 1.16 | 0.855 | 0.852 | 0.879 | 0.895 | 0.491 | 0.833
ChaGo-K-1 | 0.891 | 0.892 | 0.925 | 0.945 | 0.908 | 0.845 | 0.785 | 0.187 | 0.188 | 0.624 | 0.616 | 0.695 | 0.523 | 0.67 | 0.873 | 0.833 | 0.809 | 0.839 | 0.871 | 0.829
NCI-H1975 | 0.548 | 0.593 | 0.416 | 0.676 | 0.349 | 0.648 | 0.461 | 0.14 | 0.158 | 0.23 | 0.196 | 0.183 | 0.243 | 0.294 | 0.733 | 0.686 | 0.694 | 0.734 | 0.548 | 0.727
NCI-H1993 | 0.647 | 0.616 | 0.563 | 0.682 | 0.623 | 0.714 | 0.5 | 0.468 | 0.427 | 0.848 | 0.87 | 0.925 | 0.764 | 0.818 | 0.706 | 0.97 | 0.713 | 0.914 | 0.629 | 0.739
RERF-LC-KJ | 1.12 | 1.06 | 1.08 | 1.18 | 1.09 | 0.949 | 0.491 | 0.266 | 0.241 | 1.33 | 1.41 | 1.3 | 1.21 | 1.33 | 0.931 | 0.987 | 0.763 | 1.15 | 0.906 | 0.938
NCI-H23 | 0.504 | 0.412 | 0.501 | 0.6 | 0.465 | 0.528 | 0.304 | 0.146 | 0.111 | 0.237 | 0.209 | 0.228 | 0.228 | 0.201 | 0.246 | 0.292 | 0.286 | 0.319 | 0.537 | 0.249
EMC-BAC-2 | 0.561 | 0.476 | 0.516 | 0.538 | 0.514 | 0.502 | 0.455 | 0.257 | 0.297 | 1.14 | 1.19 | 1.16 | 1.09 | 1.38 | 1.07 | 1.02 | 1.09 | 1.17 | 0.54 | 1.02
NCI-H2405 | 0.554 | 0.514 | 0.514 | 0.561 | 0.514 | 0.509 | 0.359 | 0.284 | 0.349 | 0.625 | 0.688 | 0.773 | 0.771 | 0.93 | 0.775 | 0.728 | 0.746 | 0.705 | 0.528 | 0.689
NCI-H358 | 0.186 | 0.165 | – | 0.126 | 0.132 | 0.133 | 0.104 | 0.0605 | 0.0928 | 0.21 | 0.431 | 0.521 | – | 0.839 | 0.525 | 0.611 | – | 0.683 | 0.131 | 0.521
NCI-H1944 | 0.35 | 0.305 | 0.301 | 0.376 | 0.304 | 0.329 | 0.308 | 0.173 | 0.15 | 0.743 | 0.781 | 0.722 | 0.723 | 0.807 | 0.509 | 0.779 | 0.572 | 0.595 | 0.335 | 0.456
NCI-H2342 | 0.468 | 0.47 | 0.508 | 0.541 | – | 0.553 | 0.542 | 0.394 | 0.397 | 0.653 | 0.6 | 0.67 | 0.548 | 0.709 | 0.435 | 0.673 | 0.328 | 0.462 | 0.487 | 0.501
EPLC-272H | 0.339 | 0.335 | 0.329 | 0.369 | 0.293 | 0.315 | 0.234 | 0.168 | 0.152 | 0.161 | – | 0.313 | 0.264 | 0.58 | 0.207 | 0.22 | 0.254 | 0.208 | 0.332 | 0.183
